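How tested: cells in 96-well plates exposed to compound for 48 hours at five concentrations. At the GI50, growth is halved. TGI: concentration producing complete growth inhibition.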
How the values were obtained:
Assay in all cases: NCI-60 cell line screen, 48 h
M14 melanoma = system: M14 melanoma
SK-MEL-28 melanoma = system: SK-MEL-28 melanoma
RXF 393 renal = system: RXF 393 renal
UO-31 renal = system: UO-31 renal
SF-539 CNS = system: SF-539 CNS
NCI/ADR-RES ovarian = system: NCI/ADR-RES ovarian
NCI-H460 lung = system: NCI-H460 lung
MDA-MB-231 breast = system: MDA-MB-231 breast

Structure (SMILES)	GI50 (M14 melanoma)	TGI (M14 melanoma)	GI50 (SK-MEL-28 melanoma)	TGI (SK-MEL-28 melanoma)	GI50 (RXF 393 renal)	TGI (RXF 393 renal)	GI50 (UO-31 renal)	TGI (UO-31 renal)	GI50 (SF-539 CNS)	TGI (SF-539 CNS)	GI50 (NCI/ADR-RES ovarian)	TGI (NCI/ADR-RES ovarian)	GI50 (NCI-H460 lung)	TGI (NCI-H460 lung)	GI50 (MDA-MB-231 breast)	TGI (MDA-MB-231 breast)
CN(C)c1ccc(C(=O)c2ccc(N(C)C)c(N)c2)cc1N	1.67 µM	9.74 µM	12800 nM	> 100 µM	3760 nM	18.4 µM	4.02 µM	> 67.7 µM	3.92 µM	26.5 µM	1.13 µM	12.3 µM	2.62 µM	34.5 µM	5.81 µM	> 77.6 µM
COc1cc2c(cc1OCCCOC1=C=C=C(c3ccc4c(c3)c3cc(-c5ccc(OCCCOc6cc7c(cc6OC)C(=O)N6CCC[C@H]6C=N7)cc5)ccc3n4S(=O)(=O)c3ccc(C)cc3)C=C1)N=C[C@@H]1CCCN1C2=O	1.58 µM	6.93 µM	1860 nM	4.97 µM	1170 nM	2.59 µM	3.21 µM	11.4 µM	1.74 µM	6.3 µM	> 26.1 µM	> 50 µM	1.38 µM	7.99 µM	5.31 µM	16 µM
NC(=O)C(Br)CBr (stereo not given)	1.63 µM	3.02 µM	1690 nM	3.29 µM	1270 nM	2.7 µM	2.55 µM	12.7 µM	3.01 µM	10.3 µM	2.93 µM	> 24.1 µM	3.56 µM	13.5 µM	2.3 µM	4.76 µM
O=C(Cn1c(=O)c(-c2ccccc2)nc2ccccc21)c1cccnc1	> 100 µM	> 100 µM	> 100000 nM	> 100 µM	–	–	> 100 µM	> 100 µM	–	–	> 100 µM	> 100 µM	> 100 µM	> 100 µM	> 100 µM	> 100 µM
CC/C=C\C/C=C\C[C@H](O)C/C=C1/C(=O)C=C[C@H]1C/C=C\CCC(=O)OC	6.11 µM	> 8.25 µM	2850 nM	> 8.25 µM	4990 nM	> 8.25 µM	7.58 µM	> 8.25 µM	2.82 µM	> 8.25 µM	3.74 µM	> 8.25 µM	> 8.25 µM	> 8.25 µM	3.5 µM	> 8.25 µM
C[C@]12CC/C(=N\N)C[C@@H]1CC[C@@H]1[C@@H]2CC[C@]2(C)/C(=N/N)CC[C@@H]12	> 100 µM	> 100 µM	–	–	> 100000 nM	> 100 µM	51 µM	> 100 µM	> 100 µM	> 100 µM	> 100 µM	> 100 µM	> 100 µM	> 100 µM	> 100 µM	> 100 µM
Cc1ccccc1S(=O)(=O)N1[C@H](c2ccc(Cl)cc2)C(C(=O)N[C@@H](Cc2ccccc2)C(N)=O)=C[C@@H]1C(C)(C)C	6.44 µM	17 µM	5340 nM	12 µM	5010 nM	11.9 µM	4.23 µM	10.7 µM	6.61 µM	13.4 µM	6.69 µM	21 µM	4.7 µM	14.2 µM	6.94 µM	14.3 µM
C[C@@H]1COCCN1c1nc(-c2cnc(N)cc2C(F)F)nc(N2[C@H](C)COC[C@@H]2C)n1	0.3 µM	11.7 µM	255 nM	11.7 µM	66.8 nM	0.485 µM	0.0575 µM	11 µM	0.264 µM	6.66 µM	0.4 µM	15.1 µM	0.179 µM	12.1 µM	0.412 µM	20.8 µM
Nc1nc2c(c3ncccc13)C(c1ccc(Cl)c(Cl)c1)Cc1ncccc1-2 (stereo not given)	3.2 µM	12.3 µM	4070 nM	13.9 µM	1520 nM	5.25 µM	4.99 µM	22 µM	2.15 µM	5.35 µM	3.31 µM	16.1 µM	3.47 µM	13 µM	4.05 µM	17.1 µM
O=C1c2ccccc2-c2c1c1ccc([N+](=O)[O-])cc1c(=O)n2CCNCCCNCCn1c2c(c3ccc([N+](=O)[O-])cc3c1=O)C(=O)c1ccccc1-2	0.888 µM	23.5 µM	1290 nM	10.2 µM	389 nM	13.8 µM	0.541 µM	6.84 µM	0.872 µM	6.04 µM	0.923 µM	25.9 µM	2.68 µM	18.7 µM	0.033 µM	0.53 µM
CC(=N\O)/C(C)=N/O.CC(=N\O)/C(C)=N/O.CC(=N\O)/C(C)=N/O.CC(=N\O)/C(C)=N/O.[Cu].[Cu]	18.9 µM	34.7 µM	18800 nM	35.4 µM	21500 nM	39.3 µM	13.4 µM	27.3 µM	20.8 µM	37.2 µM	23.9 µM	59.2 µM	20.4 µM	38.5 µM	20.3 µM	35.6 µM
C=C(C)C(=O)OC1CC2(C)OC2CC(OC(C)=O)/C(C)=C/C2OC(=O)C(=C)C21 (stereo not given)	–	9.39 µM	–	1.94 µM	–	4.64 µM	–	12.5 µM	–	8.57 µM	–	18.2 µM	–	9.29 µM	–	18.5 µM
NC(N)=N/N=C/c1c(-c2cccs2)nc2sccn12	16.6 µM	30.2 µM	12600 nM	25.3 µM	–	–	17 µM	33.7 µM	12.4 µM	25.5 µM	14.5 µM	27.6 µM	14.7 µM	39.7 µM	13.4 µM	26.7 µM
O=C1c2ccccc2-c2nccc3cc(Cl)nc1c23	–	–	2220 nM	15.8 µM	–	–	–	–	4.88 µM	24.7 µM	5.16 µM	> 72.9 µM	3 µM	12.2 µM	4.62 µM	> 73.4 µM
CCON=C1C(C)(C)C(C)(C)C(C)(C)C1(C)C	–	> 100 µM	–	> 100 µM	–	> 100 µM	–	–	–	> 100 µM	–	> 100 µM	–	> 100 µM	–	> 100 µM
CC1=C(SCc2ccccc2)C(=O)c2ccccc2C1=O	–	–	–	36.5 µM	–	30.4 µM	–	–	–	30 µM	–	61.1 µM	–	51.6 µM	–	41.3 µM

— PubChem BioAssay (NCI)
